Assay results from patent US12123813B2, “Polymer stabilization of chromogen solutions” (Ventana Medical Systems, Inc., priority 2012, dated 2024).
Counter-ions that a name gives are not always drawn.

Key:
[1] = Polymer screening: DAB sulfate precipitation after KHSO4 addition (visual); assay type: physicochemical; details: additive in DAB chromogen solution
Experimental: One embodiment of a DAB base solution comprises DAB chromogen, one or more enhancers, and a stabilizer. […] Exemplary base solutions comprise 5.5 mM DAB, 10 mM imidazole, 10 mM 2-hydroxypyridine, and 1 mM sodium metabisulfite, with a pH of 2.5±0.1. In one embodiment, these compositions were tested using KHSO4 concentrations ranging from 0 to about 10 mM; more typically 0, 1.37, 2.75 and 8.0 mM, with DAB sulfate precipitation being induced at 4° C. overnight.
Polymers were screened for their impact on DAB sulfate precipitation formation by combining an enhanced DAB base solution containing a set amount of the polymer with select molar ratios of potassium hydrogen sulfate, KHSO4, relative to DAB. The enhanced DAB base solution used comprised 5.5 mM DAB·4HCl, 10 mM imidazole, 10 mM 2-hydroxypyridine, 1 mM sodium metabisulfite and 0.05% w/v Brij 35 at pH=2.3±0.1. The potassium hydrogen sulfate concentrations screened were 2.75 and 8.0 mM. […] Solutions were monitored for physical changes (i.e. color or precipitation).
Candidate polymers were screened for their impact on DAB sulfate precipitation formation by combining an enhanced DAB base solution containing a set amount of the polymer with select molar ratios of potassium hydrogen sulfate, KHSO4, relative to DAB. […] Solutions were monitored for physical changes (i.e. color or precipitation).

[2] = Water solubility of DAB-polymer complex in chromogen solution; assay type: physicochemical
Text: Sulfate and sulfonate polymers are believed to form a DAB-polymer salt complex where the hydrophilic polymer backbone helps maintain water solubility.

Compound | inhibition of DAB sulfate precipitation (in words) [1] | formation of water soluble DAB-polymer complex (in words) [2]
CC(O)CO (centres unmarked) [1,2-propanediol] | failed to inhibit DAB sulfate precipitation | –
NCCOS(=O)(=O)O [2-aminoethylhydrogen sulfate] | – | did not form water soluble DAB complexes
